Counter-ions that a name gives are not always drawn. Like-named read-outs stand apart in the source and are kept apart here.
Columns and labels:
[1] = tested on: supramaximal electroshock (SES); test: supramaximal electroshock (SES) assay (anticonvulsant activity); format: in vivo, male mouse; settings: Mus musculus, ip, read-out: Anticonvulsant Activity ED50
Description: The Formula III compounds of this invention are useful as anticonvulsants due to their anticonvulsant activity in mammals. Anticonvulsant activity is measured in the male mouse using the supramaximal electroshock (SES) assay described in Arch. Int. Pharmacodyn. 92: 97-107, 1952. Intraperitoneal doses of representative compounds of the invention and their ability to protect from the effect of SES is shown below in Table 2. ED50 values, i.e., the doses at which, within 95% confidence intervals, 50% of the animals are protected are calculated by computerized probit analysis.

[2] = tested on: N-methyl-D-aspartic acid (NMDA)-induced seizures; test: N-Methyl-D,L-Aspartic Acid Induced Seizure Assay (NMDA protection); format: in vivo, male Swiss Webster mice; settings: Mus musculus, 0.5 h; ip; N-methyl-D,L-aspartic acid 350 mg/kg, sc; total absence of clonic seizures during 30 minutes
Description: In this assay, male Swiss Webster mice (Charles River), 18-25 grams are used. Animals are ordered at 33 to 36 days of age and can be used for 8 days after arrival. They are housed for at least 24 hours in a climate controlled animal colony with food and water available ad libitum. On the day of testing, animals are brought to the laboratory and randomly assigned to groups. N-Methyl-D,L-aspartic acid (350 mg) is dissolved in 10 ml of saline and mixed thoroughly with a homogenizer for 1-2 minutes. Test compounds are prepared in distilled water and, if insoluable, a suitable surfactant is added. For a primary screen the test compound is administered at 60 mg/kg, ip (10 ml/kg), to groups of ten mice, 30 minutes prior to challenge with N-methyl-D,L-aspartic acid (350 mg/kg, sc). After N-Methyl-D,L-aspartic acid administration animals are placed individually in clear plastic cyclinders (12"×5.5"×1/4") and then observed for clonic seizures. N-methyl-D,L-aspartic acid will produce clonic seizures, and sometimes tonic seizures and death, in vehicle control animals.
A clonic convulsion is defined as a single episode of clonic spasms of a least a 3 second duration. A tonic seizure is defined as a brief period of hindlimb flexion followed by a prolonged period of hindlimb extension. The mice treated with N-methyl-D,L-aspartic acid are considered "protected" when there is a total absence of clonic seizures during the 30 minute observation period.
Test compounds are run at the time of peak effect. Three or more doses are used (10 animals per group).
Data is calculated by the method of J. T. Litchfield, Jr. and F. Wilcoxon. A test should be repeated if 40% of vehicle control animals are protected. The normalized percent formula is used when 10-30% of the vehicle control animals are protected.
The normalized percent protection is calculated using the following formula: […]

[3] = tested on: Geller Conflict Paradigm in Rats; test: Geller Conflict Paradigm in Rats (anxiolytic activity); format: in vivo
From the text: The intraperitoneal (i.p.) dosages at which the following compounds show anxiolytic activity are: […]

[4] = tested on: tetrabenazine induced ptosis; test: tetrabenazine induced ptosis assay in mice (antidepressant activity); format: in vivo; settings: Mus musculus, ip, read-out: Anti-Depressant Activity ED50
[5] = 50% inhibition of ptosis of tetrabenazine-induced depression in mice

How did the ED50 [1] turn out when `CNC(Cc1cc(Br)ccc1N)c1sccc1C` (stereo not drawn) [2-Amino-5-bromo-N-methyl-α-(3-methyl-2-thienyl)benzeneethaneamine] was run?
Its ED50 is 9.2 mg/kg.

Which ED50 [2] does the source give for `NC(CCCP(=O)(O)O)C(=O)O` (stereo not shown) [2-Amino-5-phosphonovaleric acid, reference compound] here?
The ED50 was 48.5 mg/kg.

How did the “Anti-Conflict Response, % Change Compared to Control” value ([3]; dose 1 m.g./kg i.p.) turn out when `CCNC(Cc1ccccc1N)c1sccc1C.Cl.Cl` (stereo not drawn) [2-Amino-N-ethyl-α-(3-methyl-2-thienyl)benzeneethanamine dihydrochloride] was run?
Its value is “+100%”.

And the “Anti-Conflict Response, % Change Compared to Control” value ([3]; dose 5 m.g./kg i.p.)?
The value was “+70%”.

With `CNC(Cc1ccccc1N)c1cccs1` (stereo not drawn) [2-Amino-N-methyl-α-(2-thienyl)benzeneethanamine dihydrochloride hemihydrate] as the molecule, how does the ED50 [1] read?
Its ED50 is 30.4 mg/kg.

With `CNC(Cc1ccc(C(F)(F)F)cc1N)c1sccc1C` (stereo not drawn) [2-Amino-N-methyl-α-(3-methyl-2-thienyl)-4-trifluoromethylbenzeneethanamine] as the molecule, how does the ED50 [2] read?
The ED50 was 26.4 mg/kg.

For `CNC(Cc1ccccc1N)c1sccc1C` (stereo not drawn) [2-Amino-N-methyl-α-(3-methyl-2-thienyl)benzeneethanamine], which ED50 [1] is on record?
Its ED50 is 4.6 mg/kg.

And the ED50 [2]?
Its ED50 is 26.7 mg/kg.

And the “Anti-Conflict Response, % Change Compared to Control” value ([3]; dose 20 m.g./kg i.p.)?
The value was “+807%”.

And the “Anti-Conflict Response, % Change Compared to Control” value ([3]; dose 40 m.g./kg i.p.)?
Its value is “+547%”.

What about the “Anti-Conflict Response, % Change Compared to Control” value ([3]; dose 60 m.g./kg i.p.) of the same molecule?
Its value is “+242%”.

Which ED50 [2] does the source give for `Cc1ccsc1C(N)Cc1ccccc1N.Cl.Cl` (stereo not drawn) [2-Amino-α-(3-methyl-2-thienyl)benzeneethanamine dihydrochloride] here?
The ED50 was 19 mg/kg.

For `CC1=Nc2ccccc2CC(c2ccc(C)s2)N1C` (stereo not shown) [4,5-Dihydro-2,3-dimethyl-4-(5-methyl-2-thienyl)-3H-1,3-benzodiazepine], which ED50 [4] is on record?
The ED50 was 12.2 mg/kg.

How did the ED50 [4, 5] turn out when `CCC1=Nc2ccccc2CC(c2cccs2)N1C.Cl` (stereo not shown) [4,5-Dihydro-2-ethyl-3-methyl-4-(2-thienyl)-3H-1,3-benzodiazepine hydrochloride] was run?
Its ED50 is 4.7 mg/kg.

Which ED50 [4, 5] does the source give for `CCC1=Nc2ccccc2CC(c2sccc2C)N1C.Cl.O` (stereo not shown) [4,5-Dihydro-2-ethyl-3-methyl-4-(3-methyl-2-thienyl)-3H-1,3-benzodiazepine hydrochloride monohydrate] here?
Its ED50 is 5.3 mg/kg.

For `CCC1=Nc2ccccc2CC(c2ccsc2)N1C.Cl` (stereo not shown) [4,5-Dihydro-2-ethyl-3-methyl-4-(3-thienyl)-3H-1,3-benzodiazepine hydrochloride], which ED50 [4, 5] is on record?
Its ED50 is 8.7 mg/kg.

How did the ED50 [4] turn out when `CCC1=Nc2ccccc2CC(c2ccncc2)N1C` (stereo not shown) [4,5-Dihydro-2-ethyl-3-methyl-4-(4-pyridinyl)-3H-1,3-benzodiazepine hemihydrate] was run?
Its ED50 is 6.8 mg/kg.

`CN1C(=O)CN=C(c2ccccc2)c2cc(Cl)ccc21` [Diazepam, reference compound] was tested. Which “Anti-Conflict Response, % Change Compared to Control” value ([3]; dose 10 m.g./kg i.p.) did it give?
The value was “+180%”.

What about the “Anti-Conflict Response, % Change Compared to Control” value ([3]; dose 15 m.g./kg i.p.) of the same molecule?
The value was “+453%”.

What about the “Anti-Conflict Response, % Change Compared to Control” value ([3]; dose 20 m.g./kg i.p.) of the same molecule?
Its value is “+630%”.

How did the ED50 ([1]; dose protecting 50% of the animals, 95% confidence, probit analysis) turn out when `O=C1NC(=O)C(c2ccccc2)(c2ccccc2)N1` [Diphenylhydantoin, reference compound] was run?
The ED50 was 3.9 mg/kg.

For `CN(C)CCC=C1c2ccccc2COc2ccccc21` [Doxepin, reference compound], which ED50 [4, 5] is on record?
The ED50 was 3.8 mg/kg.
